In brackets after ≈: the same amount, converted by molar mass. Structures can show the parent of a compound that is named as a salt. Where two headings read alike, the source gives them in different places.
Tests used:
Assay type in all cases: cell-based
S. aureus ATCC 25923 = experiment: In vitro antibacterial evaluation, MIC by agar dilution, S. aureus ATCC 25923; settings: Staphylococcus aureus, ATCC25923
Experimental: (§1) The compounds of the invention were evaluated against several β-lactamresistant bacteria strains by determining the minimum inhibitory concentration (MIC, μg/ml) of each compound with respect to each strain. The MIC, the lowest concentration of antibiotic which inhibits growth of the test organism, was determined by the agar dilution method.
(§2) To determine the MIC for bacterial isolates, the test compound was incorporated in a series of two-fold dilutions into liquified Mueller-Hinton agar. Upon solidification, a number of different bacterial strains were spot inoculated with a replicating device onto the agar surface. […] The procedures used in these studies have been standardized by the National Committee for Clinical Laboratory Standards (NCCLS), as per the NCCLS publication entitled METHODS FOR DILUTION ANTIMICROBIAL SUSCEPTIBILITY TESTS (1991), which is incorporated herein by reference.
(§3) Aliquots of antimicrobial agents were prepared in phosphate buffered saline (PBS) at pH 7.2. Tween 20 or DMSO was used as a solubilizing vehicle as needed. Standard methods of vortexing, sonicating and gentle heat were used to facilitate solubilizing the test agent. Typically, the concentration of the stock solution was 10× that of the highest drug concentration tested. A 1.28 mg/mL stock solution was used with a subsequent highest working concentration of 128 μg/mL. Serial two-fold dilutions were done through ≤0.25 μg/mL. Each drug level was tested in duplicate. Two-fold drug dilutions were done in sterile 50 mL tubes with a final drug volume of 5 mL. Upon the addition of 45 mL of molten agar, a 10-fold dilution resulted. Two, 25 mL. plates were then poured into 15×150 mm square Petri plates with grids and allowed to harden.
(§4) A control plate with a reference drug, either cefotaxime, vancomycin or imipenem, was used as the positive growth control. Stock concentrations of reference antibiotics were prepared and frozen at -80° C. Upon preparation, the control plates were sealed and stored in the refrigerator for up to 1 week prior to use; however, imipenem control plates had to be prepared just prior to use. All test plates were used within 24 hours of preparation.
(§5) Satisfactory results were obtained where the inoculum contained about 10^4 colony forming units (cfu) ±0.5 logs. Starting with pure cultures of the test isolates on agar plates, a few isolated colonies were transferred to a tube of nutrient broth and allowed to grow 4-6 hours at 35°-36° C. to reach log-phase growth. Dropwise addition of the broth culture to PBS was done to match a 0.5 McFarland turbidity standard equal to 10^8 cfu/mL. This was further diluted ten-fold in PBS to reach a working inoculum concentration of 10^7 cfu/mL. When 1 μL of the working inoculum was applied to the agar surface a concentration of about 10^4 cfu per spot was obtained.
(§6) Disposable sterile 1 μL loops were used to inoculate test plates, with each isolate in a designated grid on the agar plate. An alternate method of inoculation involved the use of a replica plater, a device with 48 steel pins allowing the simultaneous inoculation of multiple isolates. After the spots had dried, the plates were incubated at 35°-36° C. for 16-20 hours. Endpoints were assessed as the minimum inhibitory concentration (MIC) of antimicrobial agent.

[1] = tested on: S. epidermidis ATCC 31432; experiment: In vitro antibacterial evaluation, MIC by agar dilution, S. epidermidis ATCC 31432; settings: Staphylococcus epidermidis, ATCC31432
Experimental: as §1, §2, §3, §4, §5, §6

[2] = tested on: S. aureus 76 (Meth^R)(lac^+); experiment: In vitro antibacterial evaluation, MIC by agar dilution, S. aureus 76; settings: Staphylococcus aureus, read-out: MIC
Procedure, shortened: (§7)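 NCCLS agar dilution; Mueller-Hinton agar, 2-fold series 128 to ≤0.25 μg/mL, duplicates. Inoculum ~10^4 cfu/spot from 4-6 h log-phase broth culture. 35°-36° C, 16-20 h; MIC = lowest concentration with no growth.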

[3] = tested on: S. aureus Col8A (Meth^S)(lac^-); experiment: In vitro antibacterial evaluation, MIC by agar dilution, S. aureus Col8A; settings: Staphylococcus aureus
Procedure, shortened: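 Log-phase isolates were spot-inoculated at about 10^4 cfu onto Mueller-Hinton agar carrying duplicate two-fold compound levels, 128 μg/mL to ≤0.25 μg/mL, following NCCLS (1991). Plates were read after 16-20 h at 35°-36° C. The lowest growth-inhibiting concentration gave the MIC (μg/ml).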

S. haemolyticus (Meth^R) = experiment: In vitro antibacterial evaluation, MIC by agar dilution, S. haemolyticus; settings: Staphylococcus haemolyticus, read-out: MIC
Procedure, shortened: as §7

E. faecium ATCC 35667 = experiment: In vitro antibacterial evaluation, MIC by agar dilution, E. faecium ATCC 35667; settings: Enterococcus faecium, ATCC35667, read-out: MIC
Procedure, shortened: as §7

E. faecalis ATCC 29212 = experiment: In vitro antibacterial evaluation, MIC by agar dilution, E. faecalis ATCC 29212; settings: Enterococcus faecalis, ATCC29212; E. faecalis ATCC 29212; read-out: MIC
Procedure, shortened: as §7

E. coli ATCC 25922 = experiment: In vitro antibacterial evaluation, MIC by agar dilution, E. coli ATCC 25922; settings: Escherichia coli, ATCC25922, read-out: MIC
Procedure, shortened: as §7

P. aeruginosa ATCC 27853 = experiment: In vitro antibacterial evaluation, MIC by agar dilution, P. aeruginosa ATCC 27853; settings: Pseudomonas aeruginosa, ATCC27853, read-out: MIC
Procedure, shortened: as §7

| SMILES | MIC (S. aureus ATCC 25923) | MIC [1] | MIC [2] | MIC [3] | MIC (S. haemolyticus (Meth^R)) | MIC (E. faecium ATCC 35667) | MIC (E. faecalis ATCC 29212) | MIC (E. coli ATCC 25922) | MIC (P. aeruginosa ATCC 27853) | MIC (S. aureus ATCC 25923; S. aureus ATCC 25923, read-out: MIC) | MIC ([1]; S. epidermidis ATCC 31432, read-out: MIC) |
| --- | --- | --- | --- | --- | --- | --- | --- | --- | --- | --- | --- |
| O=C(Cc1ccccc1)N[C@@H]1C(=O)N2C(C(=O)O)=C(Sc3nnnn3-c3ccccc3)CS[C@H]12 [Cmpd 94, (7R)-7-[(Phenylacetyl)amino]-3-(1-N-phenyltetrazol-5-ylthio)-3-cephem-4-carboxylic acid] | < 0.25 µg/mL | < 0.25 µg/mL | 16 µg/mL (≈ 32.4 µM) | < 0.25 µg/mL | > 32 µg/mL | 2 µg/mL (≈ 4.04 µM) | 1 µg/mL (≈ 2.02 µM) | > 32 µg/mL | > 32 µg/mL |  |  |
| CC(C)(C)c1ccccc1SC1=C(C(=O)O)N2C(=O)[C@@H](NC(=O)Cc3ccccc3)[C@H]2SC1 [Cmpd 46, (7R)-7-[(Phenylacetyl)amino]-3-(2-tert-butylphenylthio)-3-cephem-4-carboxylic acid] | < 0.25 µg/mL | < 0.25 µg/mL | 8 µg/mL (≈ 16.6 µM) | < 0.25 µg/mL | 16 µg/mL (≈ 33.2 µM) | 2 µg/mL (≈ 4.14 µM) | 2 µg/mL (≈ 4.14 µM) | > 32 µg/mL | > 32 µg/mL |  |  |
| CN(C)C(SCc1ccc(SC2=C(C(=O)[O-])N3C(=O)[C@@H](NC(=O)Cc4ccccc4)[C@H]3SC2)c(I)c1)=[N+](C)C [Cmpd 62, (7R)-7-[(Phenylacetyl)amino]-3-(4-tetra-methylisothiouroniummethyl-2-iodophenylthio)-3-cephem-4-carboxylate, inner salt] | < 0.25 µg/mL | < 0.25 µg/mL | 16 µg/mL | < 0.25 µg/mL | 32 µg/mL | 4 µg/mL | 2 µg/mL | > 32 µg/mL | > 32 µg/mL |  |  |
| N=C(N)SCc1ccc(SC2=C(C(=O)O)N3C(=O)[C@@H](NC(=O)Cc4ccccc4)[C@H]3SC2)cc1 [Cmpd 63, (7R)-7-[(Phenylacetyl)amino]-3-(4-isothiouroniummethylphenylthio)-3-cephem-4-carboxylate, inner salt] | < 0.25 µg/mL | < 0.25 µg/mL | 16 µg/mL | < 0.25 µg/mL | 32 µg/mL | 1 µg/mL | 1 µg/mL | 8 µg/mL | > 32 µg/mL |  |  |
| O=C(Cc1ccccc1)N[C@@H]1C(=O)N2C(C(=O)O)=C(Sc3ccccc3CO)CS[C@H]12 [Cmpd 38, (7R)-7-[(Phenylacetyl)amino]-3-(2-hydroxymethylphenylthio)-3-cephem-4-carboxylic acid] | < 0.25 µg/mL | < 0.25 µg/mL | 16 µg/mL (≈ 35 µM) | < 0.25 µg/mL | 32 µg/mL (≈ 70.1 µM) | 4 µg/mL (≈ 8.76 µM) | 4 µg/mL (≈ 8.76 µM) | > 32 µg/mL | > 32 µg/mL |  |  |
| CC(C)Oc1ccccc1SC1=C(C(=O)O)N2C(=O)[C@@H](NC(=O)Cc3ccccc3)[C@H]2SC1 [Cmpd 47, (7R)-7-[(Phenylacetyl)amino]-3-(2-iso-propyloxyphenylthio)-3-cephem-4-carboxylic acid] | < 0.25 µg/mL | < 0.25 µg/mL | 8 µg/mL (≈ 16.5 µM) | < 0.25 µg/mL | 16 µg/mL (≈ 33 µM) | 2 µg/mL (≈ 4.13 µM) | 4 µg/mL (≈ 8.25 µM) | > 32 µg/mL | > 32 µg/mL |  |  |
| O=C(Cc1ccccc1)N[C@@H]1C(=O)N2C(C(=O)O)=C(Sc3ccc(Br)cc3Br)CS[C@H]12 [Cmpd 39, (7R)-7-[(Phenylacetyl)amino]-3-(2,4-dibromophenylthio)-3-cephem-4-carboxylic acid] | < 0.25 µg/mL | < 0.25 µg/mL | 4 µg/mL (≈ 6.85 µM) | < 0.25 µg/mL | 8 µg/mL (≈ 13.7 µM) | 2 µg/mL (≈ 3.42 µM) | 2 µg/mL (≈ 3.42 µM) | > 32 µg/mL | > 32 µg/mL |  |  |
| O=Cc1ccccc1SC1=C(C(=O)O)N2C(=O)[C@@H](NC(=O)Cc3ccccc3)[C@H]2SC1 [Cmpd 50, (7R)-7-[(Phenylacetyl)amino]-3-(2-formylphenylthio)-3-cephem-4-carboxylic acid] | < 0.25 µg/mL | < 0.25 µg/mL | 8 µg/mL (≈ 17.6 µM) | < 0.25 µg/mL | 8 µg/mL (≈ 17.6 µM) | 4 µg/mL (≈ 8.8 µM) | 4 µg/mL (≈ 8.8 µM) | 8 µg/mL (≈ 17.6 µM) | > 32 µg/mL |  |  |
| Nc1nc(/C(=N/O)C(=O)N[C@@H]2C(=O)N3C(C(=O)O)=C(Sc4ccccc4-c4ccccc4)CS[C@H]23)cs1 [Cmpd 42, (7R)-7-[(Z)-2-(aminothiazol-4-yl)-2-(hydroxyimino)acetamido]-3-(2-biphenylthio)-3-cephem-4-carboxylic acid] |  |  | 8 µg/mL (≈ 14.4 µM) | 0.5 µg/mL (≈ 0.903 µM) | 16 µg/mL (≈ 28.9 µM) | 2 µg/mL (≈ 3.61 µM) | 2 µg/mL (≈ 3.61 µM) | 32 µg/mL (≈ 57.8 µM) | > 32 µg/mL | < 0.25 µg/mL | < 0.25 µg/mL |
| O=C(Cc1ccccc1)N[C@@H]1C(=O)N2C(C(=O)O)=C(Sc3ccc(C(F)(F)F)cc3)CS[C@H]12 [Cmpd 40, (7R)-7-[(Phenylacetyl)amino]-3-(4-trifluoromethylphenylthio)-3-cephem-4-carboxylic acid] | < 0.25 µg/mL | < 0.25 µg/mL | 16 µg/mL (≈ 32.4 µM) | < 0.25 µg/mL | 32 µg/mL (≈ 64.7 µM) | 4 µg/mL (≈ 8.09 µM) | 4 µg/mL (≈ 8.09 µM) | > 32 µg/mL | > 32 µg/mL |  |  |
| O=C(Cc1ccccc1)N[C@@H]1C(=O)N2C(C(=O)O)=C(Sc3cnnn3-c3ccccc3)CS[C@H]12 [Cmpd 91, (7R)-7-[(Phenylacetyl)amino]-3-(1-N-phenyl-1,2,3-triazol-5-ylthio)-3-cephem-4-carboxylic acid] | < 0.25 µg/mL | < 0.25 µg/mL | 16 µg/mL (≈ 32.4 µM) | < 0.25 µg/mL | > 32 µg/mL | 2 µg/mL (≈ 4.05 µM) | 1 µg/mL (≈ 2.03 µM) | > 32 µg/mL | > 32 µg/mL |  |  |

Source: patent publication US5607926A, “Cephalosporin antibiotics” (Microcide Pharmaceuticals, Inc., priority 1995, dated 1997)
